This assay has as its target Proprotein convertase subtilisin/kexin type 9 (Homo sapiens, UniProt Q8NBP7). Put plainly: PCSK9 Inhibition Assay. How it is done: For the peptide affinity determinations, biotinylated PCSK9 was immobilized to NeutrAvidin-coated MaxiSorp Immuno-Plates and incubated with a mixture of serially diluted synthetic peptide (Pep2-2 or Pep2 at 0-100 μM) and the correspondingpeptide-displaying phage at the earlier determined subsaturating concentration (see above). After a 1-h incubation in PBT buffer (PBS, 0.5% BSA, 0.05% Tween 20), the plate was washed extensively, and the bound phage was detected by anti-M13-HRP. The data were fitted to a four-parameter equation (KaleidaGraph) to determine the IC50 values. For IC50 measurements of the Pep2-2 derivatives (Fig. 1C) and for the truncated Pep2-8 peptides (Table 1), we used the peptides in a concentration range of 0-250 μM and the Pep2-2-displaying phage at subsaturating concentrations.

Chain of Proprotein convertase subtilisin/kexin type 9 (Q8NBP7 31-152 limits assumed): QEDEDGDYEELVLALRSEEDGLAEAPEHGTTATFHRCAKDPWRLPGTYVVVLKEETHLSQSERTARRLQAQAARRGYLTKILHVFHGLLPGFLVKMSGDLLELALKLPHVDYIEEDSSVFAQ
Chain of Proprotein convertase subtilisin/kexin type 9 (Q8NBP7 153-692 limits assumed): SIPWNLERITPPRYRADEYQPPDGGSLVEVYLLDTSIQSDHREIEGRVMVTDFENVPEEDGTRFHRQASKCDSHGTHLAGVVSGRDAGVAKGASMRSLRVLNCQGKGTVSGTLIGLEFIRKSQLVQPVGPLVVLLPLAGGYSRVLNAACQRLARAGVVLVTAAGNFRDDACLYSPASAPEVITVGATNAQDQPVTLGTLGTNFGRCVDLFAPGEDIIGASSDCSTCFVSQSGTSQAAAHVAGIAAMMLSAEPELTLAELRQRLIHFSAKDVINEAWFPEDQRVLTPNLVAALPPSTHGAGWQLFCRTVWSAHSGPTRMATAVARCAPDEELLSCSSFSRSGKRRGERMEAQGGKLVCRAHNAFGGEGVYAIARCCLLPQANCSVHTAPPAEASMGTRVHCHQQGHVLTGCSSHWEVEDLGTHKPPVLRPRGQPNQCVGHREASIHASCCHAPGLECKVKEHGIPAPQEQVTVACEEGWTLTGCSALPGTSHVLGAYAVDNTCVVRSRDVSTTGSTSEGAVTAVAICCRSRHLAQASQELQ

By IC50 is commonly meant the point on the concentration scale where inhibition reaches its midpoint. A lower IC50 goes with greater potency in that assay. Molecule `CC(=O)N[C@H](C(=O)N[C@H](C(=O)N[C@@H](Cc1ccccc1)C(=O)N[C@H](C(=O)N[C@@H](CO)C(=O)N[C@@H](Cc1c[nH]c2ccccc12)C(=O)N[C@@H](CCC(=O)O)C(=O)N[C@@H](CCC(=O)O)C(=O)N[C@@H](Cc1ccc(O)cc1)C(=O)N[C@@H](CC(C)C)C(=O)N[C@@H](CC(=O)O)C(=O)N[C@@H](Cc1c[nH]c2ccccc12)C(=O)N[C@H](C(N)=O)C(C)C)[C@@H](C)O)C(C)C)[C@@H](C)O` [TVFTSWEEYLDWV] registered an IC50 of 1.4 µM. Ac-TVFTSWEEYL-NH2 [TVFTSWEEYL] returned an IC50 of 17.6 µM. Ac-TVFTSWEEYLL-NH2 [TVFTSWEEYLL] came in with an IC50 of 10 µM. Next, Ac-TVFTSWEEYLLW-NH2 [TVFTSWEEYLLW]: 6.2 µM.

Molecule Ac-TVFTSWEEYLLWV-NH2 [TVFTSWEEYLLWV] had an IC50 of 0.76 µM. Next, Ac-VFTSWEEYLLWV-NH2 [VFTSWEEYLLWV]: 4 µM; Ac-VVFTSWQDYLFWV-NH2 [VVFTSWQDYLFWV]: 37.7 µM.
